What was measured:
[1] = system: RBC sickling; experiment: Sickle inhibition in SS blood suspensions under hypoxia (2.5% oxygen); assay type: cell-based; conditions: Homo sapiens, 2 mM compound, homozygous SCD blood, 4 biological replicates
Procedure: All compounds (Comp 1-13) and comparator molecules (VZHE-039, PP-14, INN-310, and Voxelotor) were evaluated following established procedures. Blood samples from individual donors with homozygous SCD (obtained with informed consent) were diluted using Hemox buffer solution with the addition of glucose (10 mM) and BSA (0.2%) to adjust hematocrit of the blood suspensions to 20%, which standardizes the procedure to normalize the ratio of RBCs to drug, for assay consistency and reproducibility. Briefly, blood suspensions were incubated under room air in the presence of various concentrations of test compounds (0-2 mM) at 37° ° C. for 1 hour in 96-well round bottom plates. Subsequently, the suspensions were incubated with a hypoxic gas mixture (2.5% Oxygen gas/balance Nitrogen gas) at 37° C. for up to 2 hours prior to fixation with 2% glutaraldehyde solution without exposure to air. The fixated blood aliquots were evaluated by microscopic morphological analysis (image analysis on Image J software) to identify the proportion of sickled and non-sickled RBCs, and sickle inhibition calculated based on the % change from negative control (DMSO).

[2] = system: RBC sickling; experiment: Oxygen-independent sickle inhibition in SS blood suspensions under anoxia (100% nitrogen); assay type: cell-based, human; conditions: for inhibition at 2000 µM: Homo sapiens, 2 mM compound, homozygous SCD blood, 4 biological replicates; for inhibition at 2000 µM / polymer destabilizing effects (sickle inhibition in anoxia), in words: anoxia; for polymer destabilizing effects in anoxia time-course experiments, in words: up to 2.5 h
Procedure: To establish oxygen-independent sickle inhibition, the incubation chamber was subsequently opened and exposed to room air for 15 minutes to ensure complete re-oxygenation and reversal of the sickled cells to normal round cells. Reversal was confirmed by microscopy. The incubation chamber was then closed, and the assay was repeated with incubation in 100% nitrogen gas for 1 hour (for screening), or up to 2.5 h (for time-course studies), with collection and fixation of blood aliquots at defined intervals. Aliquot samples were again subjected to microscopic morphological analysis of bright field images to identify the proportion of sickled and non-sickled cells, and sickle inhibition calculated.

[3] = 14-day repeat-dose safety (clinical observations, histopathology) in rats; assay type: in vivo, rat; conditions: 100 mg/kg oral once daily for 14 days
Procedure: (§1) Repeat oral doses of each compound were administered by oral gavage for 14 days to male and female SD rats (n=3). […] Steady state exposures for the final dosing interval on Day 14 were similar to total compound exposure from single-dose PK.
(§2) Repeat doses of each compound were administered once daily as oral suspensions by gavage in 0.5% carboxy methylcellulose for 14 days at 100 mg/kg. Whole blood was collected at 7 time-points for up to 24 hours during the final dosing interval on Day 14. Clinical observations, body weights, and food consumption were recorded throughout the 14 day study. Clinical chemistry and hematologic parameters were assessed, and histopathology was performed on organs after 14 days of exposure to study drug.

[4] = biological target: T1, Hb (Homo sapiens, UniProt P69905); experiment: Occupancy/dose-dependent p50 shift in human non-sickle blood; assay type: cell-based; conditions: compared to Voxelotor at equivalent drug-Hb occupancy levels
T1 construct: Hemoglobin modification, studies using non-sickling AA blood; from tissue; host or cells: non-sickling AA blood (red cells)
Procedure: Non-sickling human blood was incubated with test compounds at 0.25-2 mM concentrations at 37 °C for 1 hour in 96-well round bottom plates. At conclusion, RBCs were washed once with PBS, followed by lysis with deionized water. Approximately 100 μl aliquots of individual lysates were added to 3 mL of 0.1M potassium phosphate buffer, pH 7.0 in a cuvette and subjected to hemoximetry analysis using a Hemox™ Analyzer (TCS Scientific Corp.) as previously described. Change in p50 values (Δp50) was calculated by subtracting the p50 values of treated samples from the value of the control sample and expressing the difference as a percentage of control p50 values.

[5] = Single-dose oral pharmacokinetics in rats; assay type: in vivo, rat
Procedure: Single-dose pharmacokinetics (PK) in male Sprague Dawley (SD) rats (n=4) were assessed for each compound, and the maximum or peak whole blood concentration and area under the curve are shown in Table 5.
Single doses of each compound were administered as oral suspensions by gavage in 0.5% carboxy methylcellulose at 100 mg/kg. Whole blood levels were collected for at least 72 hours after dose administration. Bioanalyses were performed with liquid chromatography-tandem mass spectrometry […].

[6] = ADME properties / oral bioavailability; conditions: in vivo
[7] = 14-day repeat-dose oral pharmacokinetics in rats; assay type: in vivo, rat; conditions: 14-day repeat oral doses
Procedure: as §1, §2

T1 sequence (P69905 2-142 limits assumed): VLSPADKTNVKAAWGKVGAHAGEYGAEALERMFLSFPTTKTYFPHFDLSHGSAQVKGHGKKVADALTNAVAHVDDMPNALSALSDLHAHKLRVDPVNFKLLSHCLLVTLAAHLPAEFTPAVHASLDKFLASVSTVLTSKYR
T1 sequence (P68871 2-147 partner limits assumed): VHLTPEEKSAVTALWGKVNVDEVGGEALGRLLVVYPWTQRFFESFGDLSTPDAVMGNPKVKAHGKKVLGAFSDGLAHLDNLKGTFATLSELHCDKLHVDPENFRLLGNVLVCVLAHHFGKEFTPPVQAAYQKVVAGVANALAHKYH

SMILES | inhibition at 2000 µM [1] | inhibition at 2000 µM [2] | polymer destabilizing effects (sickle inhibition in anoxia), in words [2] | clinical and histopathologic changes after 14 days of exposure [3] | changes in p50 of Hb in human blood [4] | oral exposure levels, single dose, in words [5] | absorption, distribution, metabolism and elimination (ADME) properties [6] | polymer destabilizing effects in anoxia time-course experiments, in words [2] | oral exposure levels, repeat dose, in words [7]
O=Cc1c(O)cccc1OCc1ccncc1 [Comp 3, 2-hydroxy-6-(pyridin-4-ylmethoxy)benzaldehyde] | 54.1 ± 14.7% | 26.2 ± 8.6% | – | – | – | – | – | – | –
O=Cc1c(O)cccc1OCc1ncccc1Cl [Comp 8, 2-((3-chloropyridin-2-yl)methoxy)-6-hydroxybenzaldehyde] | 69.7 ± 8% | 18.3 ± 8.4% | – | – | – | – | – | – | –
O=Cc1c(O)cccc1OCc1cccnc1Cl [Comp 7, 2-((2-chloropyridin-3-yl)methoxy)-6-hydroxybenzaldehyde] | 36.1 ± 19.7% | 9.4 ± 10.7% | – | – | – | – | – | – | –
O=Cc1c(O)cccc1OCc1cncnc1 [Comp 10, 2-hydroxy-6-(pyrimidin-5-ylmethoxy)benzaldehyde] | 76.6 ± 10.9% | 75.6 ± 18.5% | – | – | – | – | – | – | –
O=Cc1c(F)cc(F)cc1OCc1ccccn1 [Comp 9, 2,4-difluoro-6-(pyridin-2-ylmethoxy)benzaldehyde] | 68.1 ± 29.8% | 0% | completely negates the polymer destabilization effects | – | – | – | – | – | –
O=Cc1c(O)cccc1OCc1cncc(F)c1 [Comp 4, 2-((5-fluoropyridin-3-yl)methoxy)-6-hydroxybenzaldehyde] | 64.3 ± 24.5% | 69.6 ± 13.4% | – | – | – | – | – | – | –
O=Cc1c(OCc2cccnc2)ccc(F)c1O [Comp 12, 3-fluoro-2-hydroxy-6-(pyridin-3-ylmethoxy)benzaldehyde] | 68.6 ± 12% | 28.7 ± 6.9% | significantly reduced the potency of polymer inhibition | – | – | – | – | – | –
O=Cc1c(O)cccc1OCc1cccc(CO)n1 [VZHE-039, reference compound] | 75.3 ± 14.3% | 68.9 ± 17.7% | – | Both clinical and histopathologic changes in the liver, including hepatocyte necrosis | – | – | – | – | –
O=Cc1c(O)cccc1OCc1ccccc1 [Reference A, 2-(benzyloxy)-6-hydroxybenzaldehyde, reference compound] | – | – | potent polymer destabilizing effects | – | – | – | – | – | –
COc1ccc(OCc2cccc(CO)n2)c(C=O)c1 [TD-7, reference compound] | 80.6 ± 5.8% | 20.4 ± 2.9% | – | – | – | – | – | – | –
O=Cc1c(O)cccc1OCc1cccnc1 [Comp 1, 2-hydroxy-6-(pyridin-3-ylmethoxy)benzaldehyde] | 74.8 ± 15.9% | 71.9 ± 16% | most potent polymer destabilizers discovered to date | No clinical or histopathologic changes | relatively weak changes in p50 | greatest oral exposure levels observed to date | acceptable | most potent and sustained polymer destabilizing effects observed to date | –
O=Cc1c(O)cccc1OCc1cccnc1F [Comp 6, 2-((2-fluoropyridin-3-yl)methoxy)-6-hydroxybenzaldehyde] | 67.1 ± 5.8% | 32.6 ± 28.5% | – | – | – | – | – | – | –
O=Cc1c(O)cccc1OCc1ncccn1 [Comp 11, 2-hydroxy-6-(pyrimidin-2-ylmethoxy)benzaldehyde] | 67.4 ± 18.2% | 45.1 ± 10.8% | – | – | – | – | – | – | –
O=Cc1c(O)cccc1OCc1ncccc1F [Comp 5, 2-((3-fluoropyridin-2-yl)methoxy)-6-hydroxybenzaldehyde] | 66.6 ± 9.4% | 66.5 ± 21.1% | – | No clinical or histopathologic changes | relatively weak changes in p50 | greatest oral exposure levels observed to date | acceptable | – | greatest oral exposure levels observed to date
O=Cc1c(F)cc(F)cc1OCc1ncccc1F [Comp 13, 2,4-difluoro-6-((3-fluoropyridin-2-yl)methoxy)benzaldehyde] | 63.6 ± 24.3% | -0.5 ± 2.7% | completely negates the polymer destabilization effects | – | – | – | – | – | –
COc1ccc(OCc2ccccn2)c(C=O)c1 [INN-310, reference compound] | 69.9 ± 20% | 17.9 ± 7% | only weak potency in anoxia | – | – | – | – | – | –
O=Cc1c(O)cccc1OCc1ccccn1 [Comp 2, 2-hydroxy-6-(pyridin-2-ylmethoxy)benzaldehyde] | 72.8 ± 13% | 63.2 ± 17.2% | most potent polymer destabilizers discovered to date | No clinical or histopathologic changes | relatively weak changes in p50 | greatest oral exposure levels observed to date | acceptable | most potent and sustained polymer destabilizing effects observed to date | greatest oral exposure levels observed to date
CC(C)n1nccc1-c1ncccc1COc1cccc(O)c1C=O [Voxelotor, reference compound] | 79.9 ± 6.2% | 1.5 ± 5.5% | did not demonstrate any sickle inhibition in anoxic conditions | – | – | – | – | – | –
